For assay [1], the target named is T1, GalNAc-T4 (Homo sapiens, UniProt Q8N4A0).
T1 construct: using the GalNAc-T4-sol construct that encodes residues 32-578 inserted into pT7T3U19; made in house; host or cells: High Five insect cells (baculovirus, pAcGP67)
Nature of the assay: Inhibition of glycosylation dependent (GalNAc-glycopeptide) activity of GalNAc-T4, MALDI-TOF time-course. In kind it is biochemical. The conditions noted are these: […] free sugar. The procedure:
(§1) MALDI-TOF time-course in terminal reactions were performed in reactions of 25 μl containing 2.5 nmol acceptor (glyco)peptide, 40 nmol UDP-GalNAc, and 0.4 μg GalNAc-T4. Sampling of reactions (1 μl) were purified by nano-scale reversed-phase chromatography (Poros R3, PerSeptive Biosystem) and applied directly to the probe with matrix (41). The amount of GalNAc-transferase added was adjusted so that the reaction with the appropriate peptide was near completion in six hours. Reactions were incubated at 37° C. in a shaker bath. At times 0, 2 hours, and 16 hours a 1 μl aliquot was taken and purified. Mass spectra were acquired on either Voyager-DE mass spectrometer equipped with delayed extraction (Perseptive Biosystem Inc.). The matrix used was 2,5-dihydroxybenzoic acid (10 mg/ml, Hewlett-Packard) dissolved in a 2:1 mixture of 0.1% trifluoroacetic acid in 30% aqueous acetonitrile (Rathburn Ltd.).
Quantification of purified proteins was done by Coomassie stained SDS-PAGE and titration of immunoreactivity with the monoclonal antibody, UH6(4G2) (8). […] Wild-type GalNAc-T4 and mutant GalNAc-T4, GalNAc-T4^459H, were analysed with unglycosylated peptides (represented by PSGL-1) or GalNAc glycosylated glycopeptides (represented by GalNAc3TAP25V21) in reactions of 25 μl containing 2.5 nmol acceptor (glyco)peptide, 40 nmol UDP-GalNAc, and 0.4 μg GalNAc-T4. Time-course assays were motioned by MALDI-TOF. Sampling of reactions (1 μl) were purified by nano-scale reversed-phase chromatography (Poros R3, PerSeptive Biosystem) and applied directly to the probe with matrix. Evaluation of inhibition of the glycopeptide specificity of wild-type GalNAc-T4 with free sugars was performed to establish if the lectin domain recognized carbohydrate. […] Further, analysis was performed with 10 mM α-D-GalNAc-1-benzyl, αGlcNAc-benzyl, and fully occupied GalNAc-glycopeptide, GalNAc6TAP25, at 5 mM.

The subject of assay [2] is GalNAc-T4. Put plainly: Glycosylation independent activity of GalNAc-T4 with naked peptides, MALDI-TOF. The assay is classed as biochemical, human. The conditions noted are these: GalNAc-T4 459D or 459H. Here is the method: as §1
Quantification of purified proteins was done by Coomassie stained SDS-PAGE and titration of immunoreactivity with the monoclonal antibody, UH6(4G2) (8). […] Wild-type GalNAc-T4 and mutant GalNAc-T4, GalNAc-T4^459H, were analysed with unglycosylated peptides (represented by PSGL-1) or GalNAc glycosylated glycopeptides (represented by GalNAc3TAP25V21) in reactions of 25 μl containing 2.5 nmol acceptor (glyco)peptide, 40 nmol UDP-GalNAc, and 0.4 μg GalNAc-T4. […]

Assay [3] addresses T2, GalNAc-T3 (Homo sapiens, UniProt Q14435).
T2 construct: Soluble, secreted expression constructs of human GalNAc-transferases GalNAc-T1, -T2, -T3, -T4, -T6, -T7, and -T11; made in house; host or cells: insect cells (baculovirus)
T2 sequence (Q14435 38-633 limits assumed): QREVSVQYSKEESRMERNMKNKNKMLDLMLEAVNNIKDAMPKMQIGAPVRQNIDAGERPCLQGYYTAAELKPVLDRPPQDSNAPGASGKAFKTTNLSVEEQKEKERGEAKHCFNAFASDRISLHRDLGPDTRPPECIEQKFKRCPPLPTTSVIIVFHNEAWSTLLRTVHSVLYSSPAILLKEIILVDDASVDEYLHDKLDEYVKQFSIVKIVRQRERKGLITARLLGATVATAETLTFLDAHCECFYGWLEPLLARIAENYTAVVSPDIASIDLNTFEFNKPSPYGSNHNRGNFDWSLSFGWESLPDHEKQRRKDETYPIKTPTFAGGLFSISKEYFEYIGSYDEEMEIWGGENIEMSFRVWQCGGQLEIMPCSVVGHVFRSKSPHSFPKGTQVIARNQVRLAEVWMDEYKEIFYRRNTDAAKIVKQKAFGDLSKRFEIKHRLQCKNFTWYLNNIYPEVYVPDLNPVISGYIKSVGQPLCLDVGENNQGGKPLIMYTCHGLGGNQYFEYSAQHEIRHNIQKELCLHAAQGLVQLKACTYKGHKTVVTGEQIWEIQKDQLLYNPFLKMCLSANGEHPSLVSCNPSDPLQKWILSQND
Nature of the assay: GalNAc-T3 transferase activities with UDP-GalNAc or UDP-Gal donor (EA2 acceptor, peptide panel). The assay is classed as biochemical. The note with it: UDP-Gal donor; printed Muc2 substrate. Here is the method: (§2) Standard reaction mixtures (50 μl final volume) contained 25 mM cocadylate (pH 7.4), 10 mM MnCl2, 0.25% Triton X-100, 200 μM UDP-[^14C]-GalNAc (2,000 cpm/nmol) (Amersham), 200-500 μM acceptor peptides. Products were quantified by scintillation counting after chromatography on Dowex-1, octadecyl silica cartridges (Bakerbond), or HPLC (PC3.2/3 or mRPC C2/C18 SC2.1/10 Pharmacia, Smart System). […] Glycopeptides were purified on Supelclean LC-18 columns (1 ml, Supelco), and the number of GalNAc residues incorporated evaluated by MALDI-TOF mass spectrometry. The enzyme sources used were semipurified as previously described by successive sequential ion-exchange chromatographies on Amberlite (IRA95, Sigma) or DEAE Sephacel (Pharmacia), S-Sepharose Fast Flow (Pharmacia), and Mini-S™ (PC 3.2/3, Pharmacia) using the Smart System (Pharmacia) (28). Secreted GalNAc-T4 was obtained from a stably transfected CHO line (CHO/GalNA-T4/21A) (8) grown in roller bottles in HAMS F12 supplemented with 10% Fetal Bovine Serum. The experiments illustrated in FIG. 1 was performed with recombinant secreted GalNAc-T4 obtained from a stably transfected CHO line (8). Experiments illustrated in FIGS. 2 and 3 were performed with secreted GalNAc-T4 expressed in High Five cells grown in serum-free medium (8). Structural analysis of glycopeptides were performed by a combination of PFPA (pentafluoropropionic acid) hydrolysis and MALDI-TOF mass spectrometry as previously described (40). Secreted GalNAc-T7 was obtained from infected High Five™ cells grown in serum-free medium (Invitrogen) in upright roller bottles shaken 140 rpm in waterbaths at 27° C. GalNAc-T7 was not purified by Mini-S as the yields from cationic chromatography were low due to its low pI (6.4).
(§3) Galactosyl transferring activities of GalNAc-T1, -T2, and -T3, were assayed with a panel of acceptor peptides in standard reaction mixtures containing 100 μM UDP-Gal instead of UDP-GalNAc. […] Further, analysis was performed with 10 mM α-D-GalNAc-1-benzyl, αGlcNAc-benzyl, and fully occupied GalNAc-glycopeptide, GalNAC6TAP25, at 5 mM.

The target in assay [4] is T3, GalNAc-T2 (Homo sapiens, UniProt Q10471).
T3 construct: Soluble, secreted expression constructs of human GalNAc-transferases GalNAc-T1, -T2, -T3, -T4, -T6, -T7, and -T11; made in house; host or cells: insect cells (baculovirus)
Nature of the assay: GalNAc-T2 transferase activities with UDP-GalNAc or UDP-Gal donor (Muc2 acceptor, peptide panel). The note with it: UDP-Gal donor; Muc2 substrate. The assay is classed as biochemical. The procedure: as §2, §3

T1 sequence (Q8N4A0 32-578): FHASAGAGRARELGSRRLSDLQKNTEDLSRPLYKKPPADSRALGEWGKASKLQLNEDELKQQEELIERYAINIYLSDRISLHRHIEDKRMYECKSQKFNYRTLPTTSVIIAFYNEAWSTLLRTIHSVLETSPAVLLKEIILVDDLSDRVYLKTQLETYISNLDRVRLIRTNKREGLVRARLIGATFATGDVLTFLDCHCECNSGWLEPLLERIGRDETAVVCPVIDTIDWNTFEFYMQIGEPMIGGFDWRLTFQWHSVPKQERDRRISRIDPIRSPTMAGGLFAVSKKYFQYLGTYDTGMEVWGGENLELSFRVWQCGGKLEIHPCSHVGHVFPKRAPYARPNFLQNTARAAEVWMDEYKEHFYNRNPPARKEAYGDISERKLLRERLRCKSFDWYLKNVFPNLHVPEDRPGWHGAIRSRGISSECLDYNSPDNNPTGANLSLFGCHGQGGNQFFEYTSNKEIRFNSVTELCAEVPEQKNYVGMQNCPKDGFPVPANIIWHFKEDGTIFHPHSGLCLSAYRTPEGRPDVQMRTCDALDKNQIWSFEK
T3 sequence (Q10471 52-571 limits assumed): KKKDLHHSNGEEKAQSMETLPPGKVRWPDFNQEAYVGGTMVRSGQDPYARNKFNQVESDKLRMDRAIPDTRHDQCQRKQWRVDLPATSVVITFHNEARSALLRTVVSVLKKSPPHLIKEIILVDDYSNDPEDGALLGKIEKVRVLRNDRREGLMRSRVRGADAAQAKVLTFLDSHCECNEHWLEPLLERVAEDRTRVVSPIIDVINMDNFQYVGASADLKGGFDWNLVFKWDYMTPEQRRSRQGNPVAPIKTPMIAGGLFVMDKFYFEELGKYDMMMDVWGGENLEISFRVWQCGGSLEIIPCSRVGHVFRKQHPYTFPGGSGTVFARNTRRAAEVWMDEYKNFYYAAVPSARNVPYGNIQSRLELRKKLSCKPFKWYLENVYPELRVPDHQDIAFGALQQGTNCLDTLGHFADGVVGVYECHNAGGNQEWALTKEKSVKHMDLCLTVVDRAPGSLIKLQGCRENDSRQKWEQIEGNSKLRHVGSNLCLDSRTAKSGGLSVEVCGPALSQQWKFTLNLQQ

For `CC(=O)N[C@H]1C(O)O[C@H](CO)[C@H](O)[C@@H]1O` (stereo partly shown) [GalNAc, N-acetylgalactosamine], the “Inhibition of glycosylation dependent specificity of GalNAc-T4” value in assay [1] is “almost completely inhibited”. The “Effect on glycosylation independent activities of GalNAc-T4” value in assay [2] was “no effect”. In addition, the “Inhibition of galactosyltransferase activity of GalNAc-T3” value in assay [3] is listed as “selectively inhibited”. Further, the “Inhibition of galactosyltransferase activity of GalNAc-T2” value in assay [4] was “selectively inhibited”.

Values taken from patent publication US7338932B2, “Methods of modulating functions of polypeptide GalNAc-transferases and of screening test substances to find agents herefor, pharmaceutical compositions comprising such agents and the use of such agents for preparing medicaments” (Glycozym APS, priority 2000, dated 2008).
